Test results as given in the METLIN SMRT retention time set (Domingo-Almenara et al. 2019).

Test: gradient 5% acetonitrile 3 min, to 50% in 2 min, to 85% in 15 min, held 3 min, 100 µL/min
Conditions: column: Zorbax Extend-C18 2.1 x 50 mm; eluents: water / acetonitrile, 0.1% formic acid
Summary of the method: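 Retention time was recorded from adduct peaks, which were picked computationally and each inspected manually. Pure standards ran in mixtures of ~100 molecules on HPLC coupled to a quadrupole time-of-flight mass spectrometer, in positive and negative ionization mode, through a Zorbax Extend-C18 column (2.1 × 50 mm, 1.8 μm) at 100 μL/min. Eluents were water and acetonitrile, each with 0.1% formic acid.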

| Structure (SMILES) | RP-LC retention time |
| --- | --- |
| CC(CCc1ccccc1)NC(=O)Cn1cccc1-c1nc(-c2ccc3c(c2)OCO3)no1 (stereo not given) | 1090 s |
| Cc1nc(-c2cn(C)c3ncccc23)sc1C(=O)Nc1ccc(F)cc1F | 940 s |
| COc1ccc(-c2c(C)noc2NC(C)=O)cc1S(=O)(=O)N1CCC(C)CC1 | 801 s |
| COc1ccc(NC(C)=O)cc1NC(=O)C1CC(=O)N(c2n[nH]c3cccc(F)c23)C1 (stereo not given) | 634 s |
| Cc1ccc(NC(=O)N2CCc3nc[nH]c3C2)cc1Cl | 612 s |
| CCSc1nc2ccc(NS(=O)(=O)c3ccc(F)c(F)c3)cc2s1 | 1070 s |
| CCC(=O)Nc1ccc(C2(C(=O)NCC(C)C)CCCCC2)cc1 | 859 s |
| CCCC(=O)N1CCN(c2nc3ccccc3n(CC(C)C)c2=O)CC1 | 1000 s |
| COc1cc(NC(=O)NC(C)C)c2ncccc2c1 | 757 s |
| CN(C)S(=O)(=O)c1ccc(C(=O)Nc2cccc([N+](=O)[O-])c2)cc1 | 858 s |
| CCc1ccc(NC(=O)CSc2cc(N3CCCCC3C)ncn2)cc1 (stereo not given) | 1100 s |
| CN(C)C(CNC(=O)NCc1cccs1)c1cn(C)c2ccccc12 (stereo not given) | 586 s |
| CCc1nc(-c2cc(S(=O)(=O)NCC(=O)N3CCCC3)c(C)s2)no1 | 787 s |
| O=C(CN1CCN(C(=O)c2cc3cn(C4CCCC4)cc3s2)CC1)N1CCCC1 | 1150 s |
| Cc1cccc(S(=O)Cc2ccc(C(=O)NCCN3CCOCC3)o2)c1 (stereo not given) | 583 s |
| CCc1cc(-c2csc(S(=O)(=O)NCCCN3CCC(C)CC3)c2)on1 | 677 s |
| O=C(c1c(F)cccc1F)N1CCC2(CC1)N=C(c1ccc(Cl)cc1)NO2 | 847 s |
| O=C(CSc1nc(-c2ccccc2)c(NC(=O)c2cccs2)s1)NC1CC1 | 782 s |
| Cc1ccc(Cl)cc1N1CCN(C(=O)c2[nH]c(C)c(S(=O)(=O)N3CCOCC3)c2C)CC1 | 984 s |
| CC(NC(=O)C1=CCN(Cc2cccc(F)c2)CC1)c1ccccc1 (stereo not given) | 662 s |
| COc1cc(OC)cc(-c2nc(-c3ccc4c(c3)ncn4CCN3CCCC3)no2)c1 | 684 s |
| O=C(NC1CCCCCC1)C1CCCN(c2nn3c(=O)c4c(nc3s2)CCCC4)C1 (stereo not given) | 838 s |

| Structure (SMILES) | RP-LC retention time |
| --- | --- |
| COCCCNC(=O)N1CCCN(C2=NS(=O)(=O)C(c3ccc(C)c(C)c3)=C2C)CC1 | 739 s |
| CCn1nc(CNC(=O)C2CCCCC2)c2ccccc21 | 828 s |
| CCCN1C(=O)CCc2cc(NS(=O)(=O)c3cccs3)ccc21 | 797 s |
| COC(=O)C[C@@](O)(CCC(C)(C)O)C(=O)O[C@@H]1C(OC)=C[C@]23CCCN2CCc2cc4c(cc2[C@@H]13)OCO4 | 612 s |
| CC(=O)c1ccc(Nc2c(C(=O)N3CCOCC3)cnc3nc(C)ccc23)cc1 | 568 s |
| COC(=O)c1cc(S(=O)(=O)N2CCCC2C(=O)NCc2ccc(Cl)cc2)cn1C (stereo not given) | 865 s |
| CCN(CC)C(=O)Cn1cc(C(=O)C(=O)N2CCc3ccccc3C2)c2ccccc21 | 644 s |
| CC(=O)NC[C@H]1CN(c2ccc(-c3ccc(CNCc4cn[nH]n4)cc3)c(F)c2)C(=O)O1 | 647 s |
| COc1ccc2[nH]c(=O)c(CCC(=O)N(C)CCc3ccncc3)cc2c1 | 589 s |
| CCOC(=O)C1=C(CN2CCC(C(=O)OCC)CC2)NC(=O)NC1c1ccccc1 (stereo not given) | 643 s |
| CCCC(=O)Nc1ccc(-n2cnc(C(=O)N3CCN(c4ccccc4F)CC3)c2)nc1 | 788 s |
| CCOc1ccccc1N1CCN(C(=O)CSc2nccnc2Oc2ccccc2C)CC1 | 1120 s |
| CCCn1c(=O)sc2cc(S(=O)(=O)N3CCC(C(=O)Nc4ccccn4)CC3)ccc21 | 780 s |
| COc1ccccc1NC(=O)Cn1c2ccccc2n2c(=O)cc(-c3ccc(F)cc3)nc12 | 1010 s |
| O=C(CN1C[C@H]2C[C@H](C1)[C@H]1CCCC(=O)N1C2)Nc1ccc2c(c1)OCCO2 | 587 s |
| O=C(Cc1nnc(-c2ccc3ncccc3c2)o1)N1CCN(c2ccccc2)CC1 | 716 s |
| O=C(CCC1CCCC1)Nc1nc(-c2ccc(Cl)cc2)cs1 | 1290 s |
| CCOC(=O)c1ccc(NC(=O)CSc2ccc(N3CCCC(C(=O)NC4CC4)C3)nn2)cc1 (stereo not given) | 678 s |
| O=C(Cn1c(=O)c2cc(-c3ccco3)nn2c2ncccc21)Nc1ccc(F)cc1F | 840 s |
| COC(=O)c1ccc2c(=O)n(-c3ccc(F)c(Cl)c3)c(N3CCN(c4ccccn4)CC3)nc2c1 | 762 s |
| O=S(=O)(c1ccccc1)N1CC(c2nc(-c3ccncc3)no2)C1 | 688 s |
| CC1CCN(S(=O)(=O)c2ccc3nn(Cc4ccc(F)cc4)c(=O)n3c2)CC1 | 1020 s |

| Structure (SMILES) | RP-LC retention time |
| --- | --- |
| Cc1ccc(-n2nc(C)c3c(C)cc(OCC(=O)Nc4ccc5c(c4)OCO5)nc32)cc1 | 1020 s |
| Cc1cc(C)c(S(=O)(=O)N2CCC(n3cnc4c(C)cccc4c3=O)CC2)c(C)c1 | 1120 s |
| O=C(Nc1cccc(F)c1)C1CCCN(S(=O)(=O)c2c[nH]c(C(=O)N3CCCCCC3)c2)C1 (stereo not given) | 919 s |
| Cc1ccc2c(c1)C(O)(CC(=O)c1ccccc1)C(=O)N2 (stereo not given) | 666 s |
| CCCCS(=O)CC(CO)NC(=O)/C=C/c1c(C)[nH]c(=O)[nH]c1=O (stereo not given) | 569 s |
| CCc1ccc(S(=O)(=O)N2CCC(C(=O)NCc3csc(-c4cccs4)n3)CC2)cc1 | 987 s |
| COc1cccc(CN2CCC3(CCC3O)CC2)c1OC (stereo not given) | 572 s |
| Cc1ccc(CNC(=O)c2cccc(C3CCCN(C(=O)NC(C)C)C3)c2)o1 (stereo not given) | 833 s |
| COc1ccc(Cl)cc1S(=O)(=O)N1CCCC(Cn2cnc3cccnc32)C1 (stereo not given) | 708 s |
| CC(=O)c1cccc(NC(=O)CC2COc3ccccc3NC2=O)c1 (stereo not given) | 676 s |
| CCOC(=O)c1[nH]c(C)c(CCC(=O)N2CCC(C(=O)NCCC(C)C)CC2)c1C | 798 s |
| O=C(c1ccccn1)N1CCC(n2c(-c3ccoc3)nc3cccnc32)C1 (stereo not given) | 631 s |
| O=C(Nc1ncc(Cc2ccc(F)cc2)s1)c1ccc([N+](=O)[O-])cc1 | 937 s |
| CC1(c2noc(C3CC3)n2)CCN(C(=O)C2CCN(S(=O)(=O)N3CCOCC3)CC2)CC1 | 784 s |
| O=C(NC1CCCN(c2cc(-c3ccccc3)[nH]n2)C1)c1ccc2[nH]ccc2c1 (stereo not given) | 729 s |
| O=C(Nc1ccc2c(c1)OCCO2)N1CCCCCC1CN1CCOCC1 (stereo not given) | 611 s |
| O=C(Cc1ccc(NC(=O)C2CCCC2)cc1)NCC(F)(F)F | 727 s |
| Cc1ccc(C2=NC3(CCN(C(=O)c4ccc5[nH]ccc5c4)CC3)ON2)cc1 | 790 s |
| CCOC(=O)Cn1c(C2CC(=O)N(Cc3ccccc3)C2)nc2ccccc21 (stereo not given) | 749 s |
| Cc1ccc(C)c(Sc2ccc(N3CCC(C(=O)NC4CC4)CC3)nn2)c1 | 713 s |
| O=S(=O)(NCc1nnnn1-c1ccc(Cl)cc1)c1ccc2c(c1)OCCO2 | 773 s |
